Each structure is given as a SMILES string. “Also recorded” adds a separate entry of the source.

Series [1] can be described thus: Stability of photocaged dihydrotetrazine in aqueous solution / PBS / cell lysate without irradiation. Type of series: physicochemical. As to conditions: absence of irradiation, 37° C. An excerpt:
We initiated our studies by synthesizing photocaged dihydrotetrazines 1. Ideally, photocaged dihydrotetrazine 1 should be stable in aqueous solution and the uncaged dihydrotetrazine should rapidly air oxidize to tetrazine 2. With these criteria in mind, we chose 3-(but-3-yn-1-yl)-6-phenyl-[…]1,2,4,5-tetrazine as a model building block, which we reduced to the corresponding dihydrotetrazine. We decided to include a terminal alkyne so that the photocaged dihydrotetrazine could be conjugated to functional molecules by copper-catalyzed azide-alkyne cycloaddition. For the photocleavable protecting group, we decided to utilize 1-(2-nitrophenyl)ethyl carbamate, due to its sensitivity to visible light, and its previous use in cellular studies. […] In the absence of irradiation, 1a is stable in aqueous solution at 37° C. with open air for over 4 days. Having photocaged dihydrotetrazines 1 in hand, we next characterized product formation after visible light triggered decaging (FIG. 2A). […] The resulting dihydrotetrazine intermediate is spontaneously oxidized by air, generating the desired 3-(but-3-yn-1-yl)-6-phenyl-1,2,4,5-tetrazine 2a.
A photocaged dihydrotetrazine should be stable in aqueous solution and the dihydrotetrazine should rapidly be oxidized to tetrazine by air. With this hypothesis in mind, we synthesized photocaged dihydrotetrazine 1a from 3-(but-3-yn-1-yl)-6-phenyl-1,2,4,5-tetrazine, which could be converted to the corresponding dihydrotetrazine using the reductant thiourea dioxide (FIG. 1B). 1-(2-Nitrophenyl)ethyl carbamate was investigated as the photocleavable functional group, due to its sensitivity to visible blue light (28) and biocompatibility (29). […] We analyzed light-triggered tetrazine formation from photocaged dihydrotetrazine 1a (FIGS. 2A-2B). […] We measured a second-order rate constant of 101±3 M^−1 s^−1 between 2a and a model strained dienophile, trans-4-cycloocten-1-ol (TCO-OH), by monitoring the disappearance of the characteristic tetrazine visible absorption at 521 nm under pseudo first-order conditions (13).

For series [2], the system named is Hep 3B human liver cancer cells. Briefly: Cell viability after light-activated tetrazine prodrug therapy. The series is classed as cell-based. As to conditions: for influence on cell viability, agent alone: 1a 8 μM or TCO-Dox 3c 5.5 μM alone; for influence on cell viability, agent alone with irradiation: LED light 2 minutes, 1a 8 μM, TCO-Dox 3c 5.5 μM or side product 4c 5.5 μM alone. How it is done:
FIGS. 5A-5B. Light-activated tetrazine prodrug therapy in Hep 3B cancer cells. FIG. 5A: Application of light-controlled tetrazine ligation to release the chemotherapeutic doxorubicin in the presence of living Hep 3B cancer cells. Dox, doxorubicin. FIG. 5B: Cell viability of Hep 3B cancer cells after treatments with photocaged dihydrotetrazine 1a (8 μM), TCO-Dox 3c (5.5 μM), side product 4c (5.5 μM), and Dox 5a (5.5 μM) with or without irradiation by LED light (405 nm, 18 W) for 2 minutes, followed by incubation at 37° C. for 24 hours. Error bars indicate standard error of mean (SEM), which are measured from 3 replicates. Statistically significant differences in cell viability between no treatment and other means are indicated: **P<0.01. ns, not significant.
Based on the positive dual activation results obtained from the in vitro experiments, we next tested if light-triggered tetrazine ligation enabled prodrug therapy could be carried out in the presence of live cancer cells (FIG. 5B). […] Loss of cell viability was similar to that observed when cells were directly treated with Dox […] (5.5 μM) under the same conditions.
Based on the positive results obtained, we tested whether light-triggered drug delivery could be carried out in the presence of living cancer cells (FIG. 5B). […] However, upon irradiation with LED light (405 nm, 18W) for 2 minutes, followed by incubation for 24 hours, a 75.1±3% reduction of cell viability was observed. The loss of cell viability was similar to that observed when cells were directly treated with Dox 5a (5.5 μM) under the same conditions.

Series [3] is described as follows: Stability in 4-methylpiperidine/DMF solution (Fmoc deprotection conditions). The series is classed as physicochemical. The source says: Although tetrazine ligation is a widely used bioorthogonal tool, tetrazine-containing amino acid has been rarely explored in the solid-phase peptide synthesis (SPPS) due to dramatic degradations of tetrazines under the protection conditions, such as 4-methylpiperidine/DMF solution. Markedly, photocaged dihydrotetrazine 1a proves to be stable in the presence of 4-methylpiperidine/DMF solution, so that we were able to employ photocaged dihydrotetrazine-containing amino acid in SPPS and obtained the desired tetrazine-containing peptide in the late stage. Here we have synthesized unnatural amino acid photocaged dihydrotetrazine-lysine 1b (12 mg, 15 μmol) and obtained a five-amino-acid peptide 1c through practical SPPS in 49% yield (FIG. 3A). After irradiation of dihydrotetrazine-peptide 1c (10 μM) for 2 minutes in PBS at 37° C., tetrazine-peptide 2c could been readily achieved, which contains two common bioorthogonal groups, including an azido group and a tetrazine group.
Considering the stability of photocaged dihydrotetrazines, we asked if such groups could act as photoprotection moieties, masking latent tetrazines through harsh conditions that would normally be degradative. For example, in 4-methylpiperidine/DMF solution, 40% of tetrazine 2a degrades in 30 minutes. […] Therefore, we hypothesized that photocaged dihydrotetrazines would be tolerated during SPPS. […]

Series [4] is described as follows: Second-order rate constant of tetrazine ligation with strained dienophile. As to conditions: with TCO-OH; disappearance of tetrazine absorption at 521 nm, pseudo first-order conditions. The source says:
A photocaged dihydrotetrazine should be stable in aqueous solution and the dihydrotetrazine should rapidly be oxidized to tetrazine by air. With this hypothesis in mind, we synthesized photocaged dihydrotetrazine 1a from 3-(but-3-yn-1-yl)-6-phenyl-1,2,4,5-tetrazine, which could be converted to the corresponding dihydrotetrazine using the reductant thiourea dioxide (FIG. 1B). 1-(2-Nitrophenyl)ethyl carbamate was investigated as the photocleavable functional group, due to its sensitivity to visible blue light (28) and biocompatibility (29). After reacting the dihydrotetrazine intermediate with the selected photocleavable group, the desired product 1-(2-nitrophenyl)ethyl 6-(but-3-yn-1-yl)-3-phenyl-1,2,4,5-tetrazine-1(4H)-carboxylate photocaged dihydrotetrazine 1a was obtained. Nuclear magnetic resonance (NMR) studies confirmed that the secondary amine adjacent to the alkyl group of dihydrotetrazine 1a is functionalized. We analyzed light-triggered tetrazine formation from photocaged dihydrotetrazine 1a (FIGS. 2A-2B). […] We measured a second-order rate constant of 101±3 M^−1 s^−1 between 2a and a model strained dienophile, trans-4-cycloocten-1-ol (TCO-OH), by monitoring the disappearance of the characteristic tetrazine visible absorption at 521 nm under pseudo first-order conditions (13).

Turning to `C#CCCC1=NNC(c2ccccc2)=NN1C(=O)OC(C)c1ccccc1[N+](=O)[O-]` (centres unmarked) [1a, 1-(2-nitrophenyl)ethyl 6-(but-3-yn-1-yl)-3-phenyl-1,2,4,5-tetrazine-1(4H)-carboxylate], the “stable in aqueous solution (time)” value in series [1] (open air) was “over 4 days”. In addition, in series [1] (PBS or cell lysate), the “decomposition after 4 days of incubation” value is given as “less than 1%” and the “degradation over 1 day” value is given as “not observed”. In series [2], the “influence on cell viability, agent alone” value was “no influence on cell viability” and the “influence on cell viability, agent alone with irradiation” value is “no influence on cell viability”. In addition, in series [3] (4-methylpiperidine/DMF solution), the “stability in 4-methylpiperidine/DMF solution” value is “stable; also recorded: no detectable degradation”.

As for `C#CCCc1nnc(-c2ccccc2)nn1` [2a, 3-(but-3-yn-1-yl)-6-phenyl-1,2,4,5-tetrazine], the “degradation in 4-methylpiperidine/DMF solution” value in series [3] (30 minutes) amounted to 40%. Further, the second-order rate constant in series [4] was 101 ± 3 M⁻¹ s⁻¹.

With `COc1cccc2c1C(=O)c1c(O)c3c(c(O)c1C2=O)C[C@@](O)(C(=O)CO)C[C@@H]3O[C@H]1C[C@H](N)[C@H](O)[C@H](C)O1` [Dox 5a, doxorubicin, reference compound], the “loss of cell viability compared with irradiated 1a + TCO-Dox 3c mixture” value in series [2] (direct treatment with Dox 5.5 μM, same conditions) is “similar”.

On to `COc1cccc2c1C(=O)c1c(O)c3c(c(O)c1C2=O)C[C@@](O)(C(=O)CO)C[C@@H]3O[C@H]1C[C@H](NC(=O)OC2/C=C/CCCCC2)[C@H](O)[C@H](C)O1` (some centres unmarked) [TCO-Dox 3c], for which, in series [2], the “influence on cell viability, agent alone” value is on record as “no influence on cell viability” and the “influence on cell viability, agent alone with irradiation” value is reported as “no influence on cell viability”.

The values are drawn from patent publication US20250188065A1, “LIGHT-CONTROLLED BIOORTHOGONAL TETRAZINE LIGATION” (The Regents of the University Of California, priority 2020, published 2025).
